Source: article PMC12077488 (Science signaling, 2025)

Assays:
[1] = test system: endogenous adenosine receptors (A1 purinergic receptors); assay: Gαi bONE-GO kinetic BRET in primary mouse cortical astroglial cells; type: cell-based; conditions: lentiviral Gαi bONE-GO, N=3
DOR = conditions: cited from earlier work
Gαi = Gαi (UniProt P08753); conditions: cited from earlier work
GABABR = conditions: HEK293T cells expressing GABABR, GINIP-Nluc and YFP-CAAX

Gαi, sequence (P08753 2-354): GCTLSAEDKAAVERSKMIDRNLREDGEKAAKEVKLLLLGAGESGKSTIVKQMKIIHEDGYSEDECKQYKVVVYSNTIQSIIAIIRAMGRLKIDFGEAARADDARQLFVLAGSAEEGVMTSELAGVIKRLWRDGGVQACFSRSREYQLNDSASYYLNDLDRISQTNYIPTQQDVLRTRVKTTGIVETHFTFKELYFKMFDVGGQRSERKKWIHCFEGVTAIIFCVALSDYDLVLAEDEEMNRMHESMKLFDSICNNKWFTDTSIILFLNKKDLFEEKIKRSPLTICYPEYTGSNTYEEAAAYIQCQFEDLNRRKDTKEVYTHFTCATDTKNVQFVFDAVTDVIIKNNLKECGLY
GINIP, sequence (Q9UPV7 2-400): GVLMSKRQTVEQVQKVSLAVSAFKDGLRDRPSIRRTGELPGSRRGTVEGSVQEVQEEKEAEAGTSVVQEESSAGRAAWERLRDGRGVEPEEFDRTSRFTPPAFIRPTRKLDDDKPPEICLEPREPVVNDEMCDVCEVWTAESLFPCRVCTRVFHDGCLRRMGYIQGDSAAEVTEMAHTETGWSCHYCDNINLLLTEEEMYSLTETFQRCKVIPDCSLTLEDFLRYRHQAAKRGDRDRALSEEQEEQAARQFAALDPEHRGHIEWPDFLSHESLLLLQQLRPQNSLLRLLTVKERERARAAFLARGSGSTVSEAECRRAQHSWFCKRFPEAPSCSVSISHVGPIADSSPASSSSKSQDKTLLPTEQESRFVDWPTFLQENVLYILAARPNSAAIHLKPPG

Molecule: Nc1ncnc2c1ncn2[C@@H]1O[C@H](CO)[C@@H](O)[C@H]1O [adenosine]
- BRET response (endogenous Gαi activation) to adenosine [1]: robust and concentration-dependent responses

Molecule: Endomorphin-2
- agonist efficacy annotation for DOR in the IUPHAR database (DOR): lack of annotation

Molecule: GINIP (from UniProt Q9UPV7)
- Kd (Gαi): 65 nM

Molecule: CGP54626
- reversal of the GABA-induced BRET response by antagonist (GABABR): rapidly reverted

Molecule: Endomorphin-1
- DOR activity according to the source reference of the IUPHAR annotation (DOR): inactive
- agonist efficacy annotation for DOR in the IUPHAR database (DOR): full agonist
